Values quoted from earlier work in patent US20110171124A1, “In situ methods for monitoring the EMT status of tumor cells in vivo” (OSI Pharmaceuticals, Inc., priority 2009, published 2011).

System: NSCLC
Conditions: phase III, monotherapy, advanced treatment-refractory NSCLC patients

For `C#Cc1cccc(Nc2ncnc3cc(OCCOC)c(OCCOC)cc23)c1` [erlotinib, [6,7-bis(2-methoxyethoxy)-4-quinazolin-4-yl]-(3-ethynylphenyl)amine], the disease progression is listed as “delayed disease progression”, the survival is listed as “significantly prolonged survival” and the “worsening of lung cancer-related symptoms” value is listed as “delayed worsening of lung cancer-related symptoms”.
